How the values were obtained:
Format in all cases: cell-based
[1] = biological target: T1, CDK1-NanoLuc fusion with CCNB1 in 293T or 293 cells (Homo sapiens, UniProt P06493); test: NanoBRET Target Engagement (TE) Intracellular Kinase Assay, CDK1/CCNB1; conditions: NanoBRET TE intracellular kinase assay, 2-hour incubation, read-out: NanoBRET-CDK1/B1 IC50
T1 construct: host or cells: 293T (ATCC CRL-3216) or 293 (ATCC CRL-1573)
Procedure, shortened: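 IC50 derived by four-parameter logistic fit of DMSO-normalized acceptor/donor (610/450 nm) BRET ratio. Compound and Tracer K-10 were applied together for 2 h at 37° C to 293 or 293T cells transfected 24 h earlier with CDK1-NanoLuc fusion and cyclin B1.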

[2] = test system: Phospho-Rb Ser807/811 in OVCAR3 cells; test: OVCAR3 Phospho-Rb Ser807/811 HTRF assay; conditions: Homo sapiens, OVCAR-3, 1 h, OVCAR3 cells, Phospho-Rb Ser807/811 HTRF, 1 hour incubation; read-out: pRb-OVCAR3 IC50
Procedure: Cells were trypsinized and resuspended in 1 mM hydroxyurea (Sigma; H8627), 90% RPMI and 10% fetal bovine serum. […] Dose response curve normalized to DMSO control was plotted using four-parameter logistic model for IC50 calculation.

[3] = biological target: T2, CDK4-NanoLuc fusion with CCND1 in 293T or 293 cells (Homo sapiens, UniProt P11802); test: NanoBRET Target Engagement (TE) Intracellular Kinase Assay, CDK4/CCND1; conditions: NanoBRET TE intracellular kinase assay, 2-hour incubation, read-out: NanoBRET-CDK4/D1 IC50
T2 construct: host or cells: 293T (ATCC CRL-3216) or 293 (ATCC CRL-1573)

[4] = biological target: T3, CDK2-NanoLuc fusion with CCNE1 in 293T or 293 cells (Homo sapiens, UniProt P24941); test: NanoBRET Target Engagement (TE) Intracellular Kinase Assay, CDK2/CCNE1; conditions: NanoBRET TE intracellular kinase assay, 2-hour incubation, read-out: NanoBRET-CDK2/E1 IC50
T3 construct: host or cells: 293T (ATCC CRL-3216) or 293 (ATCC CRL-1573)

T1 sequence (P06493 whole entry, the tested form may be a part): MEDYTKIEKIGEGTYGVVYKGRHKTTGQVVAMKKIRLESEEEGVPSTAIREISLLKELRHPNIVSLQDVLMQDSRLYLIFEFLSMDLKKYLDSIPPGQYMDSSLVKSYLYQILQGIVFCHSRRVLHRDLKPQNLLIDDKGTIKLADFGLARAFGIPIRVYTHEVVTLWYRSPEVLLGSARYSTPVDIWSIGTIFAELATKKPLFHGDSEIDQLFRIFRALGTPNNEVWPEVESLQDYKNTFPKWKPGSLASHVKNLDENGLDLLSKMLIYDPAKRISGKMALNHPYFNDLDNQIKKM
T1 sequence (P14635 whole entry partner, the tested form may be a part): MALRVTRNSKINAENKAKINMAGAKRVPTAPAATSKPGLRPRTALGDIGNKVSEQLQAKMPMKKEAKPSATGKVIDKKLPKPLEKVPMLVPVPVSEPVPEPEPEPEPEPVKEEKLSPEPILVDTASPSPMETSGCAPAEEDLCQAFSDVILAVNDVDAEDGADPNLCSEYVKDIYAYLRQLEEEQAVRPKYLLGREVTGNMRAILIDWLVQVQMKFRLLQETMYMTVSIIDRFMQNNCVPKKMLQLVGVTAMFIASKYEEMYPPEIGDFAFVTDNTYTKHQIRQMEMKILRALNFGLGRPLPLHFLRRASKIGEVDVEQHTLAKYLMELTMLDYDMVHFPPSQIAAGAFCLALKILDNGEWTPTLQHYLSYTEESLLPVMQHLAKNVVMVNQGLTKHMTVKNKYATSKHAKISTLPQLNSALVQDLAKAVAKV
T2 sequence (P11802 whole entry, the tested form may be a part): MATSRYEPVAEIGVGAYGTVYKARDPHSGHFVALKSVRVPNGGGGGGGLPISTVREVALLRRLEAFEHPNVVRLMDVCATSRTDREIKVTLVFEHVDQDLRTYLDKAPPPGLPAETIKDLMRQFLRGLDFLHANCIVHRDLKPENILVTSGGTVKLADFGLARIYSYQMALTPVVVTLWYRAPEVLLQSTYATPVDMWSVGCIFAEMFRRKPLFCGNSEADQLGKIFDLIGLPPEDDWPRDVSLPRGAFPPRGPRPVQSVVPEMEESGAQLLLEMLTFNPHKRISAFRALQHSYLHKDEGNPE
T2 sequence (P24385 whole entry partner, the tested form may be a part): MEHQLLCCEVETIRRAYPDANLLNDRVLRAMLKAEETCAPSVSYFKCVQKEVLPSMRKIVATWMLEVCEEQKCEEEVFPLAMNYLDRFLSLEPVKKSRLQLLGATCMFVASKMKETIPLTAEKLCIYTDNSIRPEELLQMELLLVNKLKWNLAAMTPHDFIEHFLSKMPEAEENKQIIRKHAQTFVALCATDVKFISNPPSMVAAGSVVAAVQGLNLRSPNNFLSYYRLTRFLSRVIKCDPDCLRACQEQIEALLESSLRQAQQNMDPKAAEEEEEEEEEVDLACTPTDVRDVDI

IC50 [1] [nM] | IC50 [2] [nM] | IC50 [3] [nM] | IC50 [4] [nM] | Structure (SMILES)
9.01 | 34.5 | 2120 | 2.68 | CCOc1cc(O)c(C=O)c(OCC(=O)Nc2cc([C@H]3CC[C@@H](OC(=O)N4CCC4(C)C)C3)[nH]n2)c1 [Compound 211, (1R,3S)-3-(3-(2-(5-ethoxy-2-formyl-3-hydroxyphenoxy)acetamido)-1H-pyrazol-5-yl)cyclopentyl 2,2-dimethylazetidine-1-carboxylate]
0.61 | 18.1 | 1290 | 1.73 | COc1cc(OC)c(C=O)c(OCC(=O)Nc2cc([C@H]3CC[C@@H](OC(=O)N4CCC4(C)C)C3)[nH]n2)c1 [Compound 227]
5.09 | 34.8 | 961 | 2.42 | COc1cc(O)c(C=O)c(OCC(=O)Nc2cc([C@H]3CC[C@@H](OC(=O)NC(C)(C)C)C3)[nH]n2)c1 [Compound 128, (1R,3S)-3-(3-(2-(2-formyl-3-hydroxy-5-methoxyphenoxy)acetamido)-1H-pyrazol-5-yl)cyclopentyl tert-butylcarbamate]
11.4 | 61.6 | > 10000 | 4.13 | COc1cc(O)c(C=O)c(OCC(=O)Nc2cc([C@H]3C[C@@H](OC(=O)NC(C)C)C3)[nH]n2)c1 [Compound 113, (1s,3s)-3-(3-(2-(2-formyl-3-hydroxy-5-methoxyphenoxy)acetamido)-1H-pyrazol-5-yl)cyclobutyl isopropylcarbamate]
10.8 | 22 | 2940 | 3.39 | COc1cc(O)c(C=O)c(OCC(=O)Nc2cc([C@H]3CC[C@@H](OC(=O)N[C@H]4C[C@H]4F)C3)[nH]n2)c1 [Compound 132]
23.7 | 177 | > 10000 | 2.6 | O=Cc1c(O)cccc1OCC(=O)Nc1cc([C@H]2CC[C@@H](OC(=O)N3CCCC3)C2)[nH]n1 [Compound 85, (1R,3S)-3-{5-[2-(2-formyl-3-hydroxyphenoxy)acetamido]-2H-pyrazol-3-yl}cyclopentyl pyrrolidine-1-carboxylate]
19.4 | 101 | 7210 | 15.8 | COc1cc(O)c(C=O)c(OCC(=O)Nc2cc([C@@H]3CC[C@H](OC(=O)NC(C)C)C3)[nH]n2)c1 [Compound 247]
12.8 | 32.2 | 4250 | 1.9 | COc1cc(O)c(C=O)c(OCC(=O)Nc2cc([C@H]3CC[C@@H](OC(=O)N4CC[C@@H]5C[C@@H]54)C3)[nH]n2)c1 [Compound 236]
224 | 1170 | 9430 | 98.9 | CC(C)NC(=O)O[C@@H]1CC[C@H](c2cc(NC(=O)COc3cc(C#N)cc(O)c3C=O)n[nH]2)C1 [Compound 47, 1R,3S)-3-(3-(2-(5-cyano-2-formyl-3-hydroxyphenoxy)acetamido)-1H-pyrazol-5-yl)cyclopentyl isopropylcarbamate]
9.82 | 32.8 | 4100 | 1.64 | COc1cc(O)c(C=O)c(OCC(=O)Nc2cc([C@H]3CC[C@@H](OC(=O)N4CC[C@H](C)C4)C3)[nH]n2)c1 [Compound 238]
82.2 | 702 | 1910 | 8.17 | CC(C)NC(=O)O[C@@H]1CC[C@H](c2cc(NC(=O)COCc3cccc(O)c3C=O)n[nH]2)C1 [Compound 36, (1R,3S)-3-(5-{2-[(2-formyl-3-hydroxyphenyl)methoxy]acetamido}-2H-pyrazol-3-yl)cyclopentyl N-isopropylcarbamate; trifluoroacetic acid]
11.3 | 67.6 | 1000 | 6.04 | CC(C)NC(=O)O[C@@H]1CC[C@H](c2cc(NC(=O)[C@H]3C[C@@H]3c3cccc(O)c3C=O)n[nH]2)C1 (single isomer, unassigned) [Compound 10]
10.8 | 125 | 848 | 2.28 | COc1cc(O)c(C=O)c(-c2cc(C(=O)Nc3cc([C@H]4CC[C@@H](OC(=O)NC(C)C)C4)[nH]n3)n(C)n2)c1 [Compound 48, (1R,3S)-3-{5-[5-(2-formyl-3-hydroxy-5-methoxyphenyl)-2-methylpyrazole-3-amido]-2H-pyrazol-3-yl}cyclopentyl N-isopropylcarbamate; trifluoroacetic acid]
21 | 57.8 | > 10000 | 2.85 | COc1cc(O)c(C=O)c(OCC(=O)Nc2cc([C@H]3CC[C@@H](OC(=O)N4CCOCC4)C3)[nH]n2)c1 [Compound 230]
20.4 | 214 | 3070 | 5.46 | CC(C)NC(=O)O[C@@H]1CC[C@H](c2cc(NC(=O)c3cc(-c4ccc(O)c(C=O)c4)nn3C)n[nH]2)C1 [Compound 31, (1R,3S)-3-{5-[5-(3-formyl-4-hydroxyphenyl)-2-methylpyrazole-3-amido]-2H-pyrazol-3-yl}cyclopentyl N-isopropylcarbamate]
12 | 59.6 | 224 | 4.4 | CC(C)NC(=O)O[C@@H]1CC[C@H](c2cc(NC(=O)[C@H]3C[C@H](c4cccc(O)c4C=O)C3)n[nH]2)C1 [Compound 107, (1R,3S)-3-(3-((1r,3S)-3-(2-formyl-3-hydroxyphenyl)cyclobutane-1-carboxamido)-1H-pyrazol-5-yl)cyclopentyl isopropylcarbamate]
175 | 1690 | > 10000 | 23.4 | CC(C)NC(=O)O[C@@H]1CC[C@H](c2cc(NC(=O)c3cn(-c4cccc(O)c4C=O)nc3C(F)F)n[nH]2)C1 [Compound 54, (1R,3S)-3-(3-(3-(difluoromethyl)-1-(2-formyl-3-hydroxyphenyl)-1H-pyrazole-4-carboxamido)-1H-pyrazol-5-yl)cyclopentyl isopropylcarbamate]
39.2 | 662 | 1150 | 5.56 | CC(C)NC(=O)O[C@@H]1CC[C@H](c2cc(NC(=O)Cc3ccc(-c4cccc(O)c4C=O)cc3)n[nH]2)C1 [Compound 68, (1R,3S)-3-[5-(2-{2′-formyl-3′-hydroxy-[1,1′-biphenyl]-4-yl}acetamido)-2H-pyrazol-3-yl]cyclopentyl N-isopropylcarbamate; trifluoroacetic acid]
372 | 4970 | 224 | 21.4 | CC(C)NC(=O)O[C@@H]1CC[C@H](c2cc(Nc3cc(C#Cc4cccc(O)c4C=O)ccn3)n[nH]2)C1 [Compound 75, (1R,3S)-3-[5-({4-[2-(2-formyl-3-hydroxyphenyl)ethynyl]pyridin-2-yl}amino)-2H-pyrazol-3-yl]cyclopentyl N-isopropylcarbamate; trifluoroacetic acid]
20.6 | 41.5 | > 6270 | 10.3 | COc1cc(O)c(C=O)c(OCC(=O)Nc2cc([C@H]3CC[C@@H](OC(=O)NC4(C#N)CC4)C3)[nH]n2)c1 [Compound 215]
106 | 1950 | 575 | 20.2 | CC(C)NC(=O)O[C@@H]1CC[C@H](c2cc(NC(=O)COc3cc(F)cc(O)c3C=O)n[nH]2)C1 [Compound 248]
4.5 | 26.6 | 1190 | 1.5 | COc1cc(O)c(C=O)c(OCC(=O)Nc2cc([C@H]3CC[C@@H](OC(=O)NC45CC(C4)C5)C3)[nH]n2)c1 [Compound 249, (1R,3S)-3-{5-[2-(2-formyl-3-hydroxy-5-methoxyphenoxy)acetamido]-2H-pyrazol-3-yl}cyclopentyl N-{bicyclo[1.1.1]pentan-1-yl}carbamate]
4.25 | 34.4 | 4170 | 2.27 | COc1cc(O)c(C=O)c(OCC(=O)Nc2cc([C@H]3CC[C@@H](OC(=O)N4CC5CC4C5)C3)[nH]n2)c1 [Compound 228]

Structure (SMILES) | IC50 [1] [nM] | IC50 [2] [nM] | IC50 [3] [nM] | IC50 [4] [nM]
COc1cc(O)c(C=O)c(OCC(=O)Nc2cc([C@H]3C[C@@H](OC(=O)N4C5COCC4C5)C3)[nH]n2)c1 [Compound 111, (1s,3s)-3-(3-(2-(2-formyl-3-hydroxy-5-methoxyphenoxy)acetamido)-1H-pyrazol-5-yl)cyclobutyl 3-oxa-6-azabicyclo[3.1.1]heptane-6-carboxylate] | 21 | 79.8 | > 10000 | 5.45
Cc1cc(O)c(C=O)c(OCC(=O)Nc2cc([C@H]3CC[C@@H](OC(=O)N4C5COCC4C5)C3)[nH]n2)c1 [Compound 199] | 19.9 | 58.5 | 6500 | 3.76
COc1cc(O)c(C=O)c(OCC(=O)Nc2cc([C@H]3CC[C@@H](OC(=O)N4C5CCCC4C5)C3)[nH]n2)c1 [Compound 220] | 8.36 | 32.1 | 1460 | 2.89

Reference: US20250289789A1, “REVERSIBLE LYSINE COVALENT MODIFIERS OF CDK2 AND USES THEREOF” (Terremoto Biosciences, Inc., priority 2023, published 2025)
